These results are taken from patent US8309685B2 (Celgene Avilomics Research, Inc., priority 2007, dated 2012).

Where two headings read alike, the source gives them in different places.

For data set [1], the system named is cell line ET (luc-ubi-neo/ET), human Huh7 hepatoma cell line. Kind of data set: Method A: cytotoxicity in ET replicon cells (CytoTox-1). Format: cell-based. The note with it: concentration decreasing cell viability by 50%, 72 hr. In a few lines: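 ET cells (Huh7 carrying luciferase HCV replicon), 5×10^3 cells/well, given six 3-fold compound concentrations in DMEM with 5% FBS. After 72 hr, while subconfluent, cell number was measured with CytoTox-1 reagent. Interferon alpha-2b served as positive control.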
For orientation: In antiviral work, replicon cells carry a viral genome segment that copies itself.

Data set [2] concerns the target T1, D168A mutant of the HCV NS3/4A 1b protease enzyme (Hepatitis C virus genotype 1b, UniProt P26663, D1194A).
T1 construct: 10× stocks of NS3/4A protease enzyme from Bioenza (Mountain View, Calif.); purchased Bioenza (Mountain View, Calif.)
Kind of data set: HCV Protease FRET Assay (IC50), D168A mutant. Format: biochemical.

The subject of data set [3] is HCV RNA replicon in cell line ET (luc-ubi-neo/ET), human Huh7 hepatoma. The experiment in a line: Method A: HCV RNA replicon antiviral assay (luciferase, ET cell line). Format: cell-based, Hepatitis C virus. The conditions noted are these: Hepatitis C virus, Huh-7. In a few lines:
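Six 3-fold dilutions of each drug were tested on subconfluent luc-ubi-neo/ET Huh7 replicon cells (5×10^3/well) for 72 hr at 37 °C. EC50 and EC90 came from luciferase read-out, IC50 from CytoTox-1 cell number, and […]; interferon alpha-2b was run each time as control.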

In data set [4] the target is T2, A156T mutant of the HCV NS3/4A 1b protease enzyme (Hepatitis C virus genotype 1b, UniProt P26663, A1182T).
T2 construct: 10× stocks of NS3/4A protease enzyme from Bioenza (Mountain View, Calif.); purchased Bioenza (Mountain View, Calif.)
The experiment in a line: HCV Protease FRET Assay (IC50_APP), A156T mutant. Format: biochemical.

Data set [5] addresses T3, wild type HCV NS3/4A 1b protease enzyme (Hepatitis C virus genotype 1b, UniProt P26663).
T3 construct: 10× stocks of NS3/4A protease enzyme from Bioenza (Mountain View, Calif.); purchased Bioenza (Mountain View, Calif.)
The experiment in a line: HCV Protease FRET Assay (IC50_APP), wild type. It counts as biochemical. The conditions noted are these: read-out: IC50_APP, WT; apparent IC50, wild type NS3/4A 1b.

The target of data set [6] is T1, D168A mutant of the HCV NS3/4A 1b protease enzyme. The experiment in a line: HCV Protease FRET Assay (IC50_APP), D168A mutant. Format: biochemical.
Data set [7] concerns the target T3, wild type HCV NS3/4A 1b protease enzyme. Kind of data set: biochemical. Format: biochemical. The note with it: read-out: Inhibition, WT; WT enzyme, FRET assay.
[8] abbreviates: read-out: Inhibition, HCV D168A, D168A enzyme, FRET assay.
Where [9] appears, read: Replicon, assay of Example 22, 72 hr, read-out: Inhibition, Replicon.
The mark [10] stands for this setting: assay described in Example 22, read-out: Replicon (IC50).
The mark [11] stands for this setting: apparent IC50, A156T mutant; read-out: IC50_APP, HCV A156T.
The mark [12] stands for this setting: apparent IC50, D168A mutant; read-out: IC50_APP, HCV D168A.

On to `C=CC(=O)NC[C@H](NC(=O)OC(C)(C)C)C(=O)N1C[C@H](Oc2cc(-c3ccccc3)nc3cc(OC)ccc23)C[C@H]1C(=O)N[C@]1(C(=O)NS(=O)(=O)c2ccccc2)C[C@H]1C=C` [Compound I-3, N-[(1,1-dimethylethoxy)carbonyl]-3-[(2-propenoyl)amino]-L-alanyl-(4R)-4-[(7-methoxy-2-phenyl-4-quinolinyl)oxy]-L-prolyl-1-amino-2-ethenyl-N-(phenylsulfonyl)-(1R,2S)-cyclopropanecarboxamide], for which, in data set [1], the “Inhibition, Cytotoxicity” value was “E (IC50≧10,000 nM)”. Moreover, the IC50 in data set [2] (read-out: Comparative IC50 Values, D168A, biochemical assay) was 45 nM; in data set [2] (setting [8]), 10 to 100 nM; in data set [3] (setting [9]), 10 to 100 nM; in data set [3] (WT, cell-based assay, methods of the Examples, read-out: Comparative IC50 Values, WT), 20 nM; in data set [3] (setting [10]), 10 to 100 nM; in data set [4] (setting [11]), 1000 to 10000 nM. Further, the IC50 was below 10 nM in data set [5], 1000 to 10000 nM in data set [6] (setting [12]) and below 10 nM in data set [7].
Take `C=C[C@@H]1C[C@]1(NC(=O)[C@@H]1C[C@@H](Oc2cc(-c3ccccc3)nc3cc(OC)ccc23)CN1C(=O)[C@H](CNC(=O)CCl)NC(=O)OC(C)(C)C)C(=O)NS(=O)(=O)c1ccccc1` [Compound I-7, N-[(1,1-dimethylethoxy)carbonyl]-3-[(chloroacetyl)amino]-L-alanyl-(4R)-4-[(7-methoxy-2-phenyl-4-quinolinyl)oxy]-L-prolyl-1-amino-2-ethenyl-N-(phenylsulfonyl)-(1R,2S)-cyclopropanecarboxamide]: the “Inhibition, Cytotoxicity” value in data set [1] is “E (IC50≧10,000 nM)”. The IC50 is 10 to 100 nM in data set [2] (setting [8]); 10 to 100 nM in data set [3] (setting [9]); 10 to 100 nM in data set [3] (setting [10]); 100 to 1000 nM in data set [4] (read-out: IC50_APP, HCV A156T; apparent IC50, A156T mutant); below 10 nM in data set [5]; 100 to 1000 nM in data set [6] (read-out: IC50_APP, HCV D168A; apparent IC50, D168A mutant). In addition, the IC50 in data set [7] is below 10 nM. Moreover, in data set [3] (assay described in Example 22), the IC90 (commonly the concentration at which the effect reaches the 90% level) lay in the range of 100 to 1000 nM.
With `C=CC(=O)NCC(=O)N1C[C@H](Oc2cc(-c3ccccc3)nc3cc(OC)ccc23)C[C@H]1C(=O)N[C@]1(C(=O)NS(=O)(=O)c2ccccc2)C[C@H]1C=C` [Compound I-27, (2S,4R)-1-(2-acrylamidoacetyl)-4-(7-methoxy-2-phenylquinolin-4-yloxy)-N-((1R,2S)-1-(phenylsulfonylcarbamoyl)-2-vinylcyclopropyl)pyrrolidine-2-carboxamide], the “Inhibition, Cytotoxicity” value in data set [1] was “D (IC50>1000 nM and <10,000 nM)”. The IC50 in data set [2] (setting [8]) was 10 to 100 nM; in data set [3] (setting [9]), 10 to 100 nM; in data set [3] (setting [10]), 100 to 1000 nM; in data set [4] (setting [11]) it was 100 to 1000 nM; in data set [5] it was below 10 nM; in data set [6] (setting [12]), 100 to 1000 nM. In addition, in data set [7], the IC50 was below 10 nM. In addition, in data set [3] (assay described in Example 22), the IC90 lay in the range of 100 to 1000 nM.
